Values after ≈ are worked out from the molar mass of the structure shown.
Tested on: K. pneumoniae ATCC 10031
Experiment: MIC determination
Assay type: cell-based
Settings: Klebsiella pneumoniae, ATCC10031; K. pneumoniae ATCC 10031; read-out: MIC

Row | Compound | MIC
1 | CSC1O[C@H]([C@H](NC(=O)[C@H]2NC[C@@H]3C=C(C#Cc4ccccc4)CCO[C@@H]23)[C@H](C)Cl)C(O)[C@@H](O)[C@H]1O (some centres unmarked) [FSA-510002] | 64 µg/mL (≈ 119 µM)

Tested on: E. coli ATCC 25922
Experiment: MIC determination
Assay type: cell-based
Settings: Escherichia coli, ATCC25922

Row | Compound | MIC
2 | CSC1O[C@H]([C@H](NC(=O)[C@H]2NC[C@@H]3C=C(C#Cc4ccccc4)CCO[C@@H]23)[C@H](C)Cl)C(O)[C@@H](O)[C@H]1O (some centres unmarked) [FSA-510002] | > 64 µg/mL

Same assay, conditions: Escherichia coli, ATCC25922, E. coli ATCC 25922; read-out: MIC

Row | MIC | Compound
3 | > 64 µg/mL | CCOC(=O)CCN1C[C@@H]2CC=CCO[C@H]2[C@H]1C(=O)N[C@H]([C@H](C)Sc1ccc(-c2cccnc2)cc1)[C@H]1OC(SC)[C@H](O)[C@H](O)C1O (some centres unmarked) [FSA-214009b]
4 | > 64 µg/mL | CSC1O[C@H]([C@H](NC(=O)[C@@H]2[C@@H]3OCC=CC[C@H]3CN2C2CC2)[C@H](C)Sc2ccc(-c3cccnc3)cc2)C(O)C(O)[C@H]1O (some centres unmarked) [FSA-214009a]

Tested on: S. aureus ATCC 29213
Experiment: MIC determination
Assay type: cell-based
Settings: Staphylococcus aureus, ATCC29213, S. aureus ATCC 29213; read-out: MIC

Row | MIC | Compound
5 | > 64 µg/mL | CCOC(=O)CCN1C[C@@H]2CC=CCO[C@H]2[C@H]1C(=O)N[C@H]([C@H](C)Sc1ccc(-c2cccnc2)cc1)[C@H]1OC(SC)[C@H](O)[C@H](O)C1O (some centres unmarked) [FSA-214009b]
6 | 64 µg/mL (≈ 102 µM) | CSC1O[C@H]([C@H](NC(=O)[C@@H]2[C@@H]3OCC=CC[C@H]3CN2C2CC2)[C@H](C)Sc2ccc(-c3cccnc3)cc2)C(O)C(O)[C@H]1O (some centres unmarked) [FSA-214009a]

Row | Compound | MIC
7 | CSC1O[C@H]([C@H](NC(=O)[C@H]2NC[C@@H]3C=C(C#Cc4ccccc4)CCO[C@@H]23)[C@H](C)Cl)C(O)[C@@H](O)[C@H]1O (some centres unmarked) [FSA-510002] | 0.5 µg/mL (≈ 0.931 µM)

Tested on: S. pneumoniae ATCC 49619
Experiment: MIC determination
Assay type: cell-based
Settings: Streptococcus pneumoniae, ATCC49619; S. pneumoniae ATCC 49619; read-out: MIC

Row | MIC | Compound
8 | 32 µg/mL (≈ 46.5 µM) | CCOC(=O)CCN1C[C@@H]2CC=CCO[C@H]2[C@H]1C(=O)N[C@H]([C@H](C)Sc1ccc(-c2cccnc2)cc1)[C@H]1OC(SC)[C@H](O)[C@H](O)C1O (some centres unmarked) [FSA-214009b]
9 | 4 µg/mL (≈ 6.37 µM) | CSC1O[C@H]([C@H](NC(=O)[C@@H]2[C@@H]3OCC=CC[C@H]3CN2C2CC2)[C@H](C)Sc2ccc(-c3cccnc3)cc2)C(O)C(O)[C@H]1O (some centres unmarked) [FSA-214009a]

Row | Compound | MIC
10 | CSC1O[C@H]([C@H](NC(=O)[C@H]2NC[C@@H]3C=C(C#Cc4ccccc4)CCO[C@@H]23)[C@H](C)Cl)C(O)[C@@H](O)[C@H]1O (some centres unmarked) [FSA-510002] | 0.25 µg/mL (≈ 0.465 µM)

Tested on: E. coli MP-74 LptD mutant
Experiment: MIC determination
Assay type: cell-based
Settings: Escherichia coli

Row | Compound | MIC
11 | CSC1O[C@H]([C@H](NC(=O)[C@H]2NC[C@@H]3C=C(C#Cc4ccccc4)CCO[C@@H]23)[C@H](C)Cl)C(O)[C@@H](O)[C@H]1O (some centres unmarked) [FSA-510002] | 32 µg/mL (≈ 59.6 µM)

Tested on: H. influenzae ATCC 49247
Experiment: MIC determination
Assay type: cell-based
Settings: Haemophilus influenzae, ATCC49247

Row | Compound | MIC
12 | CSC1O[C@H]([C@H](NC(=O)[C@H]2NC[C@@H]3C=C(C#Cc4ccccc4)CCO[C@@H]23)[C@H](C)Cl)C(O)[C@@H](O)[C@H]1O (some centres unmarked) [FSA-510002] | 32 µg/mL (≈ 59.6 µM)

Tested on: E. faecalis ATCC 29212
Experiment: MIC determination
Assay type: cell-based
Settings: Enterococcus faecalis, ATCC29212, read-out: MIC

Row | MIC | Compound
13 | > 64 µg/mL | CCOC(=O)CCN1C[C@@H]2CC=CCO[C@H]2[C@H]1C(=O)N[C@H]([C@H](C)Sc1ccc(-c2cccnc2)cc1)[C@H]1OC(SC)[C@H](O)[C@H](O)C1O (some centres unmarked) [FSA-214009b]
14 | > 64 µg/mL | CSC1O[C@H]([C@H](NC(=O)[C@@H]2[C@@H]3OCC=CC[C@H]3CN2C2CC2)[C@H](C)Sc2ccc(-c3cccnc3)cc2)C(O)C(O)[C@H]1O (some centres unmarked) [FSA-214009a]

Row | Compound | MIC
15 | CSC1O[C@H]([C@H](NC(=O)[C@H]2NC[C@@H]3C=C(C#Cc4ccccc4)CCO[C@@H]23)[C@H](C)Cl)C(O)[C@@H](O)[C@H]1O (some centres unmarked) [FSA-510002] | 2 µg/mL (≈ 3.72 µM)

Tested on: S. pyogenes ATCC 19615
Experiment: MIC determination
Assay type: cell-based
Settings: Streptococcus pyogenes, ATCC19615; S. pyogenes ATCC 19615; read-out: MIC

Row | MIC | Compound
16 | 8 µg/mL (≈ 11.6 µM) | CCOC(=O)CCN1C[C@@H]2CC=CCO[C@H]2[C@H]1C(=O)N[C@H]([C@H](C)Sc1ccc(-c2cccnc2)cc1)[C@H]1OC(SC)[C@H](O)[C@H](O)C1O (some centres unmarked) [FSA-214009b]
17 | 4 µg/mL (≈ 6.37 µM) | CSC1O[C@H]([C@H](NC(=O)[C@@H]2[C@@H]3OCC=CC[C@H]3CN2C2CC2)[C@H](C)Sc2ccc(-c3cccnc3)cc2)C(O)C(O)[C@H]1O (some centres unmarked) [FSA-214009a]

Row | Compound | MIC
18 | CSC1O[C@H]([C@H](NC(=O)[C@H]2NC[C@@H]3C=C(C#Cc4ccccc4)CCO[C@@H]23)[C@H](C)Cl)C(O)[C@@H](O)[C@H]1O (some centres unmarked) [FSA-510002] | 0.25 µg/mL (≈ 0.465 µM)

Tested on: S. aureus BAA 977 iErmA
Experiment: MIC determination
Assay type: cell-based
Settings: Staphylococcus aureus, BAA977

Row | Compound | MIC
19 | CSC1O[C@H]([C@H](NC(=O)[C@H]2NC[C@@H]3C=C(C#Cc4ccccc4)CCO[C@@H]23)[C@H](C)Cl)C(O)[C@@H](O)[C@H]1O (some centres unmarked) [FSA-510002] | 0.25 µg/mL (≈ 0.465 µM)

Tested on: E. coli MP-9 ΔTolC
Experiment: MIC determination
Assay type: cell-based
Settings: Escherichia coli

Row | Compound | MIC
20 | CSC1O[C@H]([C@H](NC(=O)[C@H]2NC[C@@H]3C=C(C#Cc4ccccc4)CCO[C@@H]23)[C@H](C)Cl)C(O)[C@@H](O)[C@H]1O (some centres unmarked) [FSA-510002] | > 64 µg/mL
